Assay results reported in patent US20230286970A1, “NOVEL OXADIAZOLE-BASED SELECTIVE HDAC6 INHIBITORS” (ITALFARMACO S.P.A., priority 2020, published 2023).

Columns and labels:
recombinant human HDAC6 = recombinant human HDAC6 (Homo sapiens (Human), UniProt Q9UBN7); assay: Enzymatic screening, HDAC6 inhibition (fluorogenic FdL_G substrate); format: biochemical
Summary of the method: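 Enzyme was preincubated with compound (8 doses, triplicate, 1% DMSO) in 25 mM Tris-HCl pH 8, 130 mM NaCl, 0.05% Tween-20, 10% glycerol, with BSA. A FLUOR DE LYS-Green substrate was then added, and fluorescence was read after developer plus 2 μM TSA.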

recombinant human HDAC1 = recombinant human HDAC1 (Homo sapiens (Human), UniProt Q13547); assay: Enzymatic screening, HDAC1 inhibition (fluorogenic FdL_G substrate); format: biochemical
Sequence of recombinant human HDAC1 (Q13547 whole entry): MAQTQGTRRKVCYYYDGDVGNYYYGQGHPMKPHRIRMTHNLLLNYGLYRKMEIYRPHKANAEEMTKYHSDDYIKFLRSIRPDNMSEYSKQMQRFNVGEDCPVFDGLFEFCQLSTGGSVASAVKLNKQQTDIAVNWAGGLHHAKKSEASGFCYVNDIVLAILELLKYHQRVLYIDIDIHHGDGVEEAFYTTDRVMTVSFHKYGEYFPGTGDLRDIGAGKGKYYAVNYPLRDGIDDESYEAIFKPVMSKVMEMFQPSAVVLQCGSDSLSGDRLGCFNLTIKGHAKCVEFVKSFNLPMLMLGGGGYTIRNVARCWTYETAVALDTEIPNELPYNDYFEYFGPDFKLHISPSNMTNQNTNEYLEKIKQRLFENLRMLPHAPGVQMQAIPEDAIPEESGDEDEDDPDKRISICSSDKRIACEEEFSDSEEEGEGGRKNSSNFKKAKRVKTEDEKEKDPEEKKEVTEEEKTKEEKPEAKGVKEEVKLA
Summary of the method: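 Recombinant human HDAC1 inhibition was measured fluorometrically using the FLUOR DE LYS-Green (FdL_G) substrate. Compounds at 8 doses (1% DMSO final) in Tris-HCl pH 8 buffer with NaCl, Tween-20 and glycerol were preincubated in triplicate with enzyme and 1 mg/mL BSA, then given substrate. Developer I plus 2 μM TSA was added, and fluorescence read after 25 minutes in the dark.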

Sequence of recombinant human HDAC6 (Q9UBN7 whole entry): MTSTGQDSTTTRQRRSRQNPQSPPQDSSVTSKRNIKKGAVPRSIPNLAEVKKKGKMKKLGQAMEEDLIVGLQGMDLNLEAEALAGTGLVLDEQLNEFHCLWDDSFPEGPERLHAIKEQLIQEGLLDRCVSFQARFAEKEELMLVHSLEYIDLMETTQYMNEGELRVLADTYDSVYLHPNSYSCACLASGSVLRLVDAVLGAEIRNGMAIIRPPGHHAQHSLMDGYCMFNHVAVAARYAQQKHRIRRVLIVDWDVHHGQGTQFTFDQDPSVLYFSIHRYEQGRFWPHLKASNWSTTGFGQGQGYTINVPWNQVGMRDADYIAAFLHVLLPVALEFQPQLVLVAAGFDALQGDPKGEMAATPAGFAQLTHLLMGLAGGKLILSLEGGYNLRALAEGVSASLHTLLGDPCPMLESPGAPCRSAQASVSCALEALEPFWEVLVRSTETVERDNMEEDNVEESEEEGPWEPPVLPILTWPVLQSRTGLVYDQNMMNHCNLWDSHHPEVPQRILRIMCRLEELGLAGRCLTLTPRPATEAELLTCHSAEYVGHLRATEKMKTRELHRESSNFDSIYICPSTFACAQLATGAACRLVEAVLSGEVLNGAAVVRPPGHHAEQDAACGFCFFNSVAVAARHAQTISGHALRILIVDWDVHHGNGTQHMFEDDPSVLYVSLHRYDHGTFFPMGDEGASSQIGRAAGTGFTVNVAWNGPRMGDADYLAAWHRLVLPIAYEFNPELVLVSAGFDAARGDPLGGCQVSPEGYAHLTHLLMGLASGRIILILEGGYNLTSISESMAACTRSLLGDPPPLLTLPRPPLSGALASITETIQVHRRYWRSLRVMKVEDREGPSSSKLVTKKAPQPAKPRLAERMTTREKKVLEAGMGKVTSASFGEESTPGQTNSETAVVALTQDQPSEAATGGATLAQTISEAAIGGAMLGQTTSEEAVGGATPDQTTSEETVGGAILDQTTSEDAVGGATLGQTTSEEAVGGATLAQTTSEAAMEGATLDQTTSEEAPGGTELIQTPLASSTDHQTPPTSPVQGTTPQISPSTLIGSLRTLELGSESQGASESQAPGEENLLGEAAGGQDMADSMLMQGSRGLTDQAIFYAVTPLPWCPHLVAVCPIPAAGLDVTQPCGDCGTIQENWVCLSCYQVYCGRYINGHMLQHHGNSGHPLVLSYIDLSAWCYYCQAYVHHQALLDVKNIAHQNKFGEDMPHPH

O=C(Nc1cc(-c2nnn(Cc3c(F)cc(-c4nnc(C(F)F)o4)cc3F)n2)ccc1O)N1CCOCC1 [compound 95, N-(5-(2-(4-(5-(difluoromethyl)-1,3,4-oxadiazol-2-yl)-2,6-difluorobenzyl)-2H-tetrazol-5-yl)-2-hydroxyphenyl)morpholine-4-carboxamide]
IC50 (recombinant human HDAC6): 37 nM | IC50 (recombinant human HDAC1): > 200000 nM

O=C(NCc1ccco1)c1cccc(-c2nnn(Cc3ccc(-c4nnc(C(F)F)o4)cc3)n2)c1 [compound 96, 3-(2-(4-(5-(difluoromethyl)-1,3,4-oxadiazol-2-yl)benzyl)-2H-tetrazol-5-yl)-N-(furan-2-ylmethyl)benzamide]
IC50 (recombinant human HDAC6): 37 nM | IC50 (recombinant human HDAC1): > 200000 nM

O=C(Nc1cccc(-c2nnn(Cc3c(F)cc(-c4nnc(C(F)F)o4)cc3F)n2)c1)N1CCOCC1 [compound 98, N-(3-(2-(4-(5-(difluoromethyl)-1,3,4-oxadiazol-2-yl)-2,6-difluorobenzyl)-2H-tetrazol-5-yl)phenyl)morpholine-4-carboxamide]
IC50 (recombinant human HDAC6): 38 nM | IC50 (recombinant human HDAC1): > 200000 nM

NCc1ccc(-c2nc(Cc3c(F)cc(-c4nnc(C(F)F)o4)cc3F)no2)cc1 [compound 100, (4-(3-(4-(5-(difluoromethyl)-1,3,4-oxadiazol-2-yl)-2,6-difluorobenzyl)-1,2,4-oxadiazol-5-yl)phenyl)methanamine]
IC50 (recombinant human HDAC6): 39 nM | IC50 (recombinant human HDAC1): > 200000 nM

NCc1ccc(-c2cn(Cc3c(F)cc(-c4nnc(C(F)F)o4)cc3F)nn2)cn1 [compound 101, (5-(1-(4-(5-(difluoromethyl)-1,3,4-oxadiazol-2-yl)-2,6-difluorobenzyl)-1H-1,2,3-triazol-4-yl)pyridin-2-yl)methanamine]
IC50 (recombinant human HDAC6): 39 nM | IC50 (recombinant human HDAC1): > 200000 nM

FC(F)c1nnc(-c2ccc(Cn3nnc(-c4ccc(N5CCNCC5)cc4)n3)cc2)o1 [compound 103, 2-(difluoromethyl)-5-(4-((5-(4-(piperazin-1-yl)phenyl)-2H-tetrazol-2-yl)methyl)phenyl)-1,3,4-oxadiazole]
IC50 (recombinant human HDAC6): 39 nM | IC50 (recombinant human HDAC1): > 200000 nM

O=C1NCc2ccc(-c3nnn(Cc4ncc(-c5nnc(C(F)F)o5)cn4)n3)cc21 [compound 107, 6-(2-((5-(5-(difluoromethyl)-1,3,4-oxadiazol-2-yl)pyrimidin-2-yl)methyl)-2H-tetrazol-5-yl)isoindolin-1-one]
IC50 (recombinant human HDAC6): 41 nM | IC50 (recombinant human HDAC1): > 200000 nM

O=C1Nc2ccc(-c3nnn(Cc4ccc(-c5nnc(C(F)F)o5)cc4)n3)cc2NC12CCCC2 [compound 110, 7′-(2-(4-(5-(difluoromethyl)-1,3,4-oxadiazol-2-yl)benzyl)-2H-tetrazol-5-yl)-1′,4′-dihydro-3′H-spiro[cyclopentane-1,2′-quinoxalin]-3′-one]
IC50 (recombinant human HDAC6): 42 nM | IC50 (recombinant human HDAC1): > 200000 nM

FC(F)c1nnc(-c2ccc(Cn3nnc(-c4cccc(-c5cnn6c5CNCC6)c4)n3)cc2)o1 [compound 111, 2-(difluoromethyl)-5-(4-((5-(3-(4,5,6,7-tetrahydropyrazolo[1,5-a]pyrazin-3-yl)phenyl)-2H-tetrazol-2-yl)methyl)phenyl)-1,3,4-oxadiazole]
IC50 (recombinant human HDAC6): 42 nM | IC50 (recombinant human HDAC1): > 200000 nM

O=C(c1cccc(-c2nnn(Cc3c(F)cc(-c4nnc(C(F)F)o4)cc3F)n2)c1)N1CCOCC1 [compound 112, (3-(2-(4-(5-(difluoromethyl)-1,3,4-oxadiazol-2-yl)-2,6-difluorobenzyl)-2H-tetrazol-5-yl)phenyl)(morpholino)methanone]
IC50 (recombinant human HDAC6): 42 nM | IC50 (recombinant human HDAC1): > 200000 nM

CCNc1cccc(-c2cn(Cc3c(F)cc(-c4nnc(C(F)F)o4)cc3F)nn2)c1 [compound 114, 3-(1-(4-(5-(difluoromethyl)-1,3,4-oxadiazol-2-yl)-2,6-difluorobenzyl)-1H-1,2,3-triazol-4-yl)-N-ethylaniline]
IC50 (recombinant human HDAC6): 43 nM | IC50 (recombinant human HDAC1): > 200000 nM

Cc1ncccc1-c1cn(Cc2ccc(-c3nnc(C(F)F)o3)cn2)nn1 [compound 115, 2-(difluoromethyl)-5-(6-((4-(2-methylpyridin-3-yl)-1H-1,2,3-triazol-1-yl)methyl)pyridin-3-yl)-1,3,4-oxadiazole]
IC50 (recombinant human HDAC6): 43 nM | IC50 (recombinant human HDAC1): > 200000 nM

FC(F)c1nnc(-c2ccc(Cn3nnc(-c4cncc5ccccc45)n3)cc2)o1 [compound 118, 2-(difluoromethyl)-5-(4-((5-(isoquinolin-4-yl)-2H-tetrazol-2-yl)methyl)phenyl)-1,3,4-oxadiazole]
IC50 (recombinant human HDAC6): 44 nM | IC50 (recombinant human HDAC1): > 200000 nM

O=C(Nc1cccc(-c2cnn(Cc3ccc(-c4nnc(C(F)F)o4)cn3)c2)c1)N1CCOCC1 [compound 119, N-(3-(1-((5-(5-(difluoromethyl)-1,3,4-oxadiazol-2-yl)pyridin-2-yl)methyl)-1H-pyrazol-4-yl)phenyl)morpholine-4-carboxamide]
IC50 (recombinant human HDAC6): 45 nM | IC50 (recombinant human HDAC1): > 200000 nM

O=C(c1cccc(-c2nnn(Cc3ccc(-c4nnc(C(F)F)o4)cc3)n2)c1)N1CCOCC1 [compound 120, (3-(2-(4-(5-(difluoromethyl)-1,3,4-oxadiazol-2-yl)benzyl)-2H-tetrazol-5-yl)phenyl)(morpholino)methanone]
IC50 (recombinant human HDAC6): 45 nM | IC50 (recombinant human HDAC1): > 200000 nM

Nc1ccc(-c2cn(Cc3ccc(-c4nnc(C(F)F)o4)cc3)nn2)cc1 [compound 121, 4-(1-(4-(5-(difluoromethyl)-1,3,4-oxadiazol-2-yl)benzyl)-1H-1,2,3-triazol-4-yl)aniline]
IC50 (recombinant human HDAC6): 45 nM | IC50 (recombinant human HDAC1): > 200000 nM

O=C1Nc2cc(-c3cn(Cc4ccc(-c5nnc(C(F)F)o5)cn4)nn3)ccc2C12CCCC2 [compound 123, 6′-(1-((5-(5-(difluoromethyl)-1,3,4-oxadiazol-2-yl)pyridin-2-yl)methyl)-1H-1,2,3-triazol-4-yl)spiro[cyclopentane-1,3′-indolin]-2′-one]
IC50 (recombinant human HDAC6): 46 nM | IC50 (recombinant human HDAC1): > 200000 nM

O=C(Nc1ccc(-c2cn(Cc3ccc(-c4nnc(C(F)F)o4)cn3)cn2)cn1)C(F)F [compound 126, N-(5-(1-((5-(5-(difluoromethyl)-1,3,4-oxadiazol-2-yl)pyridin-2-yl)methyl)-1H-imidazol-4-yl)pyridin-2-yl)-2,2-difluoroacetamide]
IC50 (recombinant human HDAC6): 49 nM | IC50 (recombinant human HDAC1): > 200000 nM

FC(F)c1nnc(-c2ccc(Cn3nnc(-c4ccc5ccncc5c4)n3)cc2)o1 [compound 127, 2-(difluoromethyl)-5-(4-((5-(isoquinolin-7-yl)-2H-tetrazol-2-yl)methyl)phenyl)-1,3,4-oxadiazole]
IC50 (recombinant human HDAC6): 49 nM | IC50 (recombinant human HDAC1): > 200000 nM

Nc1cccc(-c2nnn(Cc3ccc(-c4nnc(C(F)F)o4)cc3)n2)c1 [compound 129, 3-[2-[[4-[5-(difluoromethyl)-1,3,4-oxadiazol-2-yl]phenyl]methyl]tetrazol-5-yl]aniline]
IC50 (recombinant human HDAC6): 50 nM | IC50 (recombinant human HDAC1): > 200000 nM

FC(F)c1nnc(-c2ccc(Cn3nnc(-c4cccc(-c5cnc(N6CCOCC6)s5)c4)n3)nc2)o1 [compound 130, 4-(5-(3-(2-((5-(5-(difluoromethyl)-1,3,4-oxadiazol-2-yl)pyridin-2-yl)methyl)-2H-tetrazol-5-yl)phenyl)thiazol-2-yl)morpholine]
IC50 (recombinant human HDAC6): 50 nM | IC50 (recombinant human HDAC1): > 200000 nM

Nc1nc2cc(-c3cn(Cc4ccc(-c5nnc(C(F)F)o5)cc4)nn3)ccc2s1 [compound 132, 5-(1-(4-(5-(difluoromethyl)-1,3,4-oxadiazol-2-yl)benzyl)-1H-1,2,3-triazol-4-yl)benzo[d]thiazol-2-amine]
IC50 (recombinant human HDAC6): 51 nM | IC50 (recombinant human HDAC1): > 200000 nM

Nc1ccc(-c2cn(Cc3ccc(-c4nnc(C(F)F)o4)cc3Cl)nn2)cn1 [compound 134, 5-(1-(2-chloro-4-(5-(difluoromethyl)-1,3,4-oxadiazol-2-yl)benzyl)-1H-1,2,3-triazol-4-yl)pyridin-2-amine]
IC50 (recombinant human HDAC6): 52 nM | IC50 (recombinant human HDAC1): > 200000 nM

Nc1ccc(-c2noc(Cc3ccc(-c4nnc(C(F)F)o4)cc3)n2)cn1 [compound 135, 5-(5-(4-(5-(difluoromethyl)-1,3,4-oxadiazol-2-yl)benzyl)-1,2,4-oxadiazol-3-yl)pyridin-2-amine]
IC50 (recombinant human HDAC6): 53 nM | IC50 (recombinant human HDAC1): > 200000 nM

FC(F)c1nnc(-c2ccc(Cn3cc(-c4ccc5nc(Cl)[nH]c5c4)nn3)cc2)o1 [compound 136, 2-(4-((4-(2-chloro-1H-benzo[d]imidazol-6-yl)-1H-1,2,3-triazol-1-yl)methyl)phenyl)-5-(difluoromethyl)-1,3,4-oxadiazole]
IC50 (recombinant human HDAC6): 53 nM | IC50 (recombinant human HDAC1): > 200000 nM

O=C(c1cccc(-c2nnn(Cc3ccc(-c4nnc(C(F)F)o4)c(F)c3)n2)c1)N1CCOCC1 [compound 137, (3-(2-(4-(5-(difluoromethyl)-1,3,4-oxadiazol-2-yl)-3-fluorobenzyl)-2H-tetrazol-5-yl)phenyl)(morpholino)methanone]
IC50 (recombinant human HDAC6): 53 nM | IC50 (recombinant human HDAC1): > 200000 nM

CC(=O)Nc1cccc(-c2cn(Cc3ccc(-c4nnc(C(F)F)o4)cc3)nn2)c1 [compound 139, N-(3-(1-(4-(5-(difluoromethyl)-1,3,4-oxadiazol-2-yl)benzyl)-1H-1,2,3-triazol-4-yl)phenyl)acetamide]
IC50 (recombinant human HDAC6): 55 nM | IC50 (recombinant human HDAC1): > 200000 nM

Nc1ccc(-c2nc(Cc3c(F)cc(-c4nnc(C(F)F)o4)cc3F)no2)cn1 [compound 141, 5-(3-(4-(5-(difluoromethyl)-1,3,4-oxadiazol-2-yl)-2,6-difluorobenzyl)-1,2,4-oxadiazol-5-yl)pyridin-2-amine]
IC50 (recombinant human HDAC6): 56 nM | IC50 (recombinant human HDAC1): > 200000 nM

CNc1ccc2cc(-c3cn(Cc4ccc(-c5nnc(C(F)F)o5)cc4)nn3)ccc2n1 [compound 142, 6-(1-(4-(5-(difluoromethyl)-1,3,4-oxadiazol-2-yl)benzyl)-1H-1,2,3-triazol-4-yl)-N-methylquinolin-2-amine]
IC50 (recombinant human HDAC6): 59 nM | IC50 (recombinant human HDAC1): > 200000 nM

CN1CCN(C(=O)Nc2cccc(-c3cn(Cc4ccc(-c5nnc(C(F)F)o5)cc4)nn3)c2)CC1 [compound 146, N-(3-(1-(4-(5-(difluoromethyl)-1,3,4-oxadiazol-2-yl)benzyl)-1H-1,2,3-triazol-4-yl)phenyl)-4-methylpiperazine-1-carboxamide]
IC50 (recombinant human HDAC6): 62 nM | IC50 (recombinant human HDAC1): > 200000 nM
